Experimental findings from patent publication US7018796B2, “Preincubation assay methods” (Shionogi & Co., Ltd., priority 2000, dated 2006) are described below.

This assay has as its target T1, HCV RNA-dependent RNA polymerase (Hepatitis C virus genotype 1a, UniProt P27958).
T1 construct: HCV RNA-dependent RNA polymerase is encoded in the NS5B (nonstructural protein 5B) region of HCV; made in house; host or cells: insect cells or E. coli
As to the kind of experiment: DIG-UTP assay without radioisotope-labeled substrate, with pre-incubation (Example 2). It is filed as biochemical. The note with it: pre-incubation 25° C. 1 hr, I-1 0.5 μg/ml, 3′-dUTP 0.7 μM, A 100 μg/ml, B 50 μg/ml, C 25 μg/ml. As to the method:
In Example 1, ^3H-UTP, that is UTP labeled with tritium as radioisotope was used as substrate in the assay with pre-incubation using HCV RNA-dependent RNA polymerase. Herein, digoxigenin-labeled UTP (DIG-UTP) instead of ^3H-UTP was used as substrate in the assay with pre-incubation using HCV RNA-dependent RNA polymerase. • 1) Streptavidin (1 mg/ml) was dissolved in the phosphate buffer saline (PBS) containing NaCl (0.137 M), KCl (2.68 mM), potassium dihydrogenphosphate (1.47 mM) and sodium phosphate (8.06 mM). • 2) The streptavidin solution was diluted 25-fold with the carbonate buffer containing sodium carbonate (0.9 M) and sodium hydrogencarbonate (0.1 M). • 3) The 25-fold streptavidin solution (50 μl/well) was transferred to a well of 96 wells-microtiter palate with flat bottom for immunoassay and then the plate was kept at 4° C. over night. • 4) After the 96 wells-microtiter plate was coated with streptavidin, the well was washed twice by adding, mixing and draining PBS (200 μl/well). • 5) The skim milk dissolved with PBS (1%, 300 μl) was transferred into each well and was kept at room temperature for 30 min. • 6) After the plate was washed once with PBS (200 μl/well), the well was filled with PBS (300 μl/well) and then the plate was stored at 4° C. • 7) After the PBS was drained from the streptavidin-coated plate stored under the condition described in 6), the well was washed once with PBS (200 μl/well) and was filled with de-ionized water (300 μl/well). • 8) The buffer I (10 μl) containing Tris-HCl (100 mM, pH 7.5), MgCl2 (25 mM), dithiothreitol (5 mM), KCl (125 mM) and ethylenediaminetetraacetic acid (5 mM) was transferred to a polypropylene tube and then poly(A) solution (6.25 μg/ml, 10 μl), biotin-labeled oligo(U)12 solution (3 μg/ml, 10 μl), water (10 μl) and HCV RNA-dependent RNA polymerase solution (10 μl) were added into the tube and mixed calmly. • 9) De-ionized water was drained from the plate described in 7), and the solution (50 μl/well) at once after the mixing described in 8) was transferred to each well. After mixing by a plate mixer, the solution was pre-incubated at 25° C. for 1 hr. • 10) On the other hand, the buffer I (10 μl) was transferred into another tube, and UTP (1 μM, 10 μl), DIG-UTP (300 μM, 1 μl), water (24 μl) and a test compound dissolved with dimethyl sulfoxide or water (5 μl) were added to the tube and mixed calmly. Concentrations of the compounds used were as follows.
• 11) The mixed solution (50 μl/well) described in 10) was transferred into each well after the pre-incubation described in 9), mixed by a plate mixer and then incubated at 25° C. for 1 hr. • 12) When the enzyme reaction was in 1 hr, the enzyme reaction was stopped by adding ethylenediaminetetraacetic acid (0.1 M, 50 μl/well). • 13) The plate was washed twice with PBS (200 μl/well) after end of the enzyme reaction. • 14) Next, alkaline phosphatase-labeled anti-DIG antibody (3 U/ml, 100 μl/well) diluted 250-fold with PBS containing skim milk (0.5%) was transferred each well. […] The substrate solution was transferred into each well of the plate, mixed by a plate mixer and then incubated at 25° C. for 1 hr until the color appears in the solution. • 17) The plate was set on a plate reader and the absorbance was measured at 405 nm. • 18) The inhibitory rate was calculated from the optical density (unit; OD) measured as follows. […]

T1 sequence (P27958 2421-3011): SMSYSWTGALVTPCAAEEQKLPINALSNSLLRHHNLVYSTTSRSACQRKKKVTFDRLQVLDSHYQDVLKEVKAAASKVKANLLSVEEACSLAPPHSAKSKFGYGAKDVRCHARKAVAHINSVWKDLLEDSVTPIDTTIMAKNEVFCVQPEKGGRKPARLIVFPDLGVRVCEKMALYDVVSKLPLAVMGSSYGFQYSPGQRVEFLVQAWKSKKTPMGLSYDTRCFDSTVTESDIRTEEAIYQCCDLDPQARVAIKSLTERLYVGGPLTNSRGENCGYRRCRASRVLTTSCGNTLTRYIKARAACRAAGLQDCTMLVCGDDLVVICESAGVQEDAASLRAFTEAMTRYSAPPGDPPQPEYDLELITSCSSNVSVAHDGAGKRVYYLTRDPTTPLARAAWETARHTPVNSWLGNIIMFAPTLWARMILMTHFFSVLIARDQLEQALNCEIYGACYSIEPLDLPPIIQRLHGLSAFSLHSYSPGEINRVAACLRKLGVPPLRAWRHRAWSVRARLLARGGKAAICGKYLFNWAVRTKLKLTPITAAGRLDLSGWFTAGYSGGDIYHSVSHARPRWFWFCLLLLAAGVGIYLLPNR

`O=c1ccn([C@@H]2O[C@H](COP(=O)(O)OP(=O)(O)OP(=O)(O)O)C[C@H]2O)c(=O)[nH]1` [3′-dUTP, 3′-deoxyuridine triphosphate]: the “Inhibitory rate, treatment of pre-incubation +” value was determined as 50%. Still for that read-out and setting: the result for `Cc1oc(-c2ccccc2)nc1CCOc1ccc(C=C2C(=O)NC(=O)NC2=O)cc1` [Compound A] reads 24%. The same measure, in the same setting: for `O=C1NC(=O)C(=Cc2ccc(OCCc3cccc4ccccc34)cc2)C(=O)N1` [Compound B] the value was 20%. On the same count and under the same terms, for `CCCCC1=N/C(=C\c2ccccc2OCC(=O)O)C(=O)N1Cc1ccc(-c2ccccc2-c2nnn[nH]2)cc1` [Compound C] the value was 15%.

As to `O=C(O)/C(O)=C/C(=O)c1cccc(O)c1` [Compound I-1], the inhibition at 0.5 µg/mL (read-out: Inhibitory rate, treatment of pre-incubation +) worked out at 52%.
